The test can be described thus: Determination of GC-odor threshold values. Particulars: gas chromatograph with sniff port, panel of trained evaluators; absolute amount delivered at the sniff port. As for the experimental part: According to standard procedures known to the person skilled in the art, threshold values for volatile perfumery compounds are determined on a gas chromatograph equipped with a sniff port by a panel of trained evaluators. The lowest concentration smelled by each panellist is recorded as the individual threshold value expressed in ng (absolute amount of compound delivered at the sniff port).
Under identical conditions the odour threshold value for the individual compounds was measured.
As to `Cc1ccc(C(C#N)=C2CCCCC2)cc1` [Example 2, Cyclohexylidene-p-tolyl-acetonitrile], the “odour threshold value geometric mean” value stood at 2.91 ng.

As for `Cc1cccc(C(C#N)=C2CCCCC2)c1` [Example 4, Cyclohexylidene-m-tolyl-acetonitrile], the “odour threshold value geometric mean” value was 1.08 ng.

For `Cc1ccccc1C(C#N)=C1CCCCC1` [Example 1, Cyclohexylidene-o-tolyl-acetonitrile], the “odour threshold value geometric mean” value is given as 0.12 ng.

Regarding `N#CC(=C1CCCCC1)c1ccccc1` [Peonile ®, cyclohexylidene-phenyl-acetonitrile], the “odour threshold value geometric mean” value came out at 0.53 ng.

The values are drawn from patent US7655701B2, “Cycloalkylidene-(ortho substituted phenyl)-acetonitriles and their use as odorants” (Givaudan SA, priority 2005, dated 2010).
